Measurements from ChEMBL document CHEMBL4339185 (Eur J Med Chem, 2019).
Values after ≈ are worked out from the molar mass of the structure shown.

How the values were obtained:
Staphylococcus aureus [1] = assay: Antimicrobial activity against methicillin-resistant Staphylococcus aureus incubated for 18 hrs by serial microdilution method; format: functional
Staphylococcus aureus [2] = assay: Antimicrobial activity against Staphylococcus aureus ATCC 6538 incubated for 18 hrs by serial microdilution method; format: functional; conditions: ATCC 6538, 18 h
Staphylococcus aureus [3] = assay: Antimicrobial activity against MLSB-resistant Staphylococcus aureus incubated for 18 hrs by serial microdilution method; format: functional
[4] = test system: Staphylococcus epidermidis; assay: Antimicrobial activity against Staphylococcus epidermidis ATCC 12228 incubated for 18 hrs by serial microdilution method; format: functional; conditions: ATCC 12228, 18 h
[5] = test system: Staphylococcus epidermidis; assay: Antimicrobial activity against Staphylococcus epidermidis ATCC 49134 incubated for 18 hrs by serial microdilution method; format: functional; conditions: ATCC 49134, 18 h
Enterococcus faecalis = assay: Antimicrobial activity against Enterococcus faecalis ATCC 29212 incubated for 18 hrs by serial microdilution method; format: functional; conditions: ATCC 29212, 18 h
Escherichia coli = assay: Antimicrobial activity against Escherichia coli ATCC 25922 incubated for 18 hrs by serial microdilution method; format: functional; conditions: ATCC 25922, 18 h
[6] = Solubility of the compound in water at pH 7 by UV-vis spectrophotometric analysis; format: physicochemical
[7] = Lipophilicity, log P of the compound in octanol and water incubated for 1 h under shaking condition; format: physicochemical

Compound	MIC (Staphylococcus aureus [1])	MIC (Staphylococcus aureus [2])	MIC (Staphylococcus aureus [3])	MIC [4]	MIC [5]	MIC (Enterococcus faecalis)	MIC (Escherichia coli)	solubility [6]	logP at 1 h [7]
CO[C@H]1/C=C/O[C@@]2(C)Oc3c(C)c(O)c4c(O)c(c(CN5CCN(C)CC5)c(O)c4c3C2=O)NC(=O)/C(C)=C\C=C\[C@H](C)[C@H](O)[C@@H](C)[C@@H](O)[C@@H](C)[C@H](OC(C)=O)[C@@H]1C	0.5 µg/mL (≈ 0.617 µM)	0.5 µg/mL (≈ 0.617 µM)	1 µg/mL (≈ 1.23 µM)	0.25 µg/mL (≈ 0.309 µM)	0.25 µg/mL (≈ 0.309 µM)	> 8 µg/mL	> 8 µg/mL	100 µg/mL (≈ 123 µM)	1.76
CO[C@H]1/C=C/O[C@@]2(C)Oc3c(C)c(O)c4c(O)c(c(CNC5CCCNC5=O)c(O)c4c3C2=O)NC(=O)/C(C)=C\C=C\[C@H](C)[C@H](O)[C@@H](C)[C@@H](O)[C@@H](C)[C@H](OC(C)=O)[C@@H]1C (stereo not given in full)	0.25 µg/mL (≈ 0.303 µM)	0.5 µg/mL (≈ 0.607 µM)	0.5 µg/mL (≈ 0.607 µM)	0.25 µg/mL (≈ 0.303 µM)	0.25 µg/mL (≈ 0.303 µM)	> 8 µg/mL	> 8 µg/mL	210 µg/mL (≈ 255 µM)	1.14
CO[C@H]1/C=C/O[C@@]2(C)Oc3c(C)c(O)c4c(O)c(c(CNC5CCN(CC6CCCCC6)CC5)c(O)c4c3C2=O)NC(=O)/C(C)=C\C=C\[C@H](C)[C@H](O)[C@@H](C)[C@@H](O)[C@@H](C)[C@H](OC(C)=O)[C@@H]1C	0.25 µg/mL (≈ 0.276 µM)	0.25 µg/mL (≈ 0.276 µM)	0.125 µg/mL (≈ 0.138 µM)	0.125 µg/mL (≈ 0.138 µM)	0.125 µg/mL (≈ 0.138 µM)	4 µg/mL (≈ 4.41 µM)	> 8 µg/mL	< 50 µg/mL	3.31
CO[C@H]1/C=C/O[C@@]2(C)Oc3c(C)c(O)c4c(O)c(c(CN5CCN(C(c6ccc(F)cc6)c6ccc(F)cc6)CC5)c(O)c4c3C2=O)NC(=O)/C(C)=C\C=C\[C@H](C)[C@H](O)[C@@H](C)[C@@H](O)[C@@H](C)[C@H](OC(C)=O)[C@@H]1C	4 µg/mL (≈ 4.01 µM)	4 µg/mL (≈ 4.01 µM)	8 µg/mL (≈ 8.01 µM)	4 µg/mL (≈ 4.01 µM)	2 µg/mL (≈ 2 µM)	> 8 µg/mL	> 8 µg/mL	< 50 µg/mL	2.34
CO[C@H]1/C=C/O[C@@]2(C)Oc3c(C)c(O)c4c(O)c(c(CNC5CCN(CC(=O)O)CC5)c(O)c4c3C2=O)NC(=O)/C(C)=C\C=C\[C@H](C)[C@H](O)[C@@H](C)[C@@H](O)[C@@H](C)[C@H](OC(C)=O)[C@@H]1C	0.25 µg/mL (≈ 0.288 µM)	0.25 µg/mL (≈ 0.288 µM)	0.5 µg/mL (≈ 0.576 µM)	0.0625 µg/mL (≈ 0.072 µM)	0.0625 µg/mL (≈ 0.072 µM)	> 8 µg/mL	> 8 µg/mL	> 100000 µg/mL	-1.5
CO[C@H]1/C=C/O[C@@]2(C)Oc3c(C)c(O)c4c(O)c(c(CNCC(=O)N5CCCCC5)c(O)c4c3C2=O)NC(=O)/C(C)=C\C=C\[C@H](C)[C@H](O)[C@@H](C)[C@@H](O)[C@@H](C)[C@H](OC(C)=O)[C@@H]1C	1 µg/mL (≈ 1.17 µM)	1 µg/mL (≈ 1.17 µM)	1 µg/mL (≈ 1.17 µM)	0.5 µg/mL (≈ 0.587 µM)	0.25 µg/mL (≈ 0.293 µM)	> 8 µg/mL	> 8 µg/mL	120 µg/mL (≈ 141 µM)	1.35
CO[C@H]1/C=C/O[C@@]2(C)Oc3c(C)c(O)c4c(O)c(c(CNC5CCCC(C(N)=O)C5)c(O)c4c3C2=O)NC(=O)/C(C)=C\C=C\[C@H](C)[C@H](O)[C@@H](C)[C@@H](O)[C@@H](C)[C@H](OC(C)=O)[C@@H]1C (stereo not given in full)	0.5 µg/mL (≈ 0.587 µM)	0.5 µg/mL (≈ 0.587 µM)	0.25 µg/mL (≈ 0.293 µM)	0.25 µg/mL (≈ 0.293 µM)	0.25 µg/mL (≈ 0.293 µM)	> 8 µg/mL	> 8 µg/mL	150 µg/mL (≈ 176 µM)	1.33
CO[C@H]1/C=C/O[C@@]2(C)Oc3c(C)c(O)c4c(O)c(c(CN5CCN(c6ccccn6)CC5)c(O)c4c3C2=O)NC(=O)/C(C)=C\C=C\[C@H](C)[C@H](O)[C@@H](C)[C@@H](O)[C@@H](C)[C@H](OC(C)=O)[C@@H]1C	1 µg/mL (≈ 1.15 µM)	2 µg/mL (≈ 2.29 µM)	0.5 µg/mL (≈ 0.573 µM)	0.25 µg/mL (≈ 0.286 µM)	0.25 µg/mL (≈ 0.286 µM)	> 8 µg/mL	> 8 µg/mL	< 50 µg/mL	1.99
CO[C@H]1/C=C/O[C@@]2(C)Oc3c(C)c(O)c4c(O)c(c(CN5CCN(Cc6c(C)cc(C)cc6C)CC5)c(O)c4c3C2=O)NC(=O)/C(C)=C\C=C\[C@H](C)[C@H](O)[C@@H](C)[C@@H](O)[C@@H](C)[C@H](OC(C)=O)[C@@H]1C	2 µg/mL (≈ 2.15 µM)	4 µg/mL (≈ 4.31 µM)	2 µg/mL (≈ 2.15 µM)	0.5 µg/mL (≈ 0.539 µM)	1 µg/mL (≈ 1.08 µM)	> 8 µg/mL	> 8 µg/mL	< 300 µg/mL	1.82
CO[C@H]1/C=C/O[C@@]2(C)Oc3c(C)c(O)c4c(O)c(c(/C=N/N5CCN(C)CC5)c(O)c4c3C2=O)NC(=O)/C(C)=C\C=C\[C@H](C)[C@H](O)[C@@H](C)[C@@H](O)[C@@H](C)[C@H](OC(C)=O)[C@@H]1C [RIFAMPIN]	0.0156 µg/mL (≈ 0.019 µM)	0.0156 µg/mL (≈ 0.019 µM)	0.0312 µg/mL (≈ 0.038 µM)	0.0156 µg/mL (≈ 0.019 µM)	0.0156 µg/mL (≈ 0.019 µM)	8 µg/mL (≈ 9.72 µM)	> 8 µg/mL		
CO[C@H]1/C=C/O[C@@]2(C)Oc3c(C)c(O)c4c(O)c(c5c(nc6cc(C)ccn65)c4c3C2=O)NC(=O)/C(C)=C\C=C\[C@H](C)[C@H](O)[C@@H](C)[C@@H](O)[C@@H](C)[C@H](OC(C)=O)[C@@H]1C [RIFAXIMIN]	0.0625 µg/mL (≈ 0.0795 µM)	0.0625 µg/mL (≈ 0.0795 µM)	0.125 µg/mL (≈ 0.159 µM)	0.0312 µg/mL (≈ 0.0398 µM)	0.0312 µg/mL (≈ 0.0398 µM)	8 µg/mL (≈ 10.2 µM)	> 8 µg/mL		
